# Test results as given in patent US20090176772A1, “METHOD OF REVERSING LEFT VENTRICULAR REMODELING” (priority 2004, published 2009).
# Assays:
# Assay type in all cases: in vivo, dog
# [1] = system: dogs with chronic heart failure produced by multiple sequential intracoronary microembolizations; assay: Echocardiographic and Doppler measurements in dogs with chronic heart failure; conditions: mean±SEM
# Source text: (§1) The following example examines the effects of ranolazine alone and in combination with an angiotensin converting enzyme (ACE) inhibitor and in combination with a beta-blocker on the progression of left ventricular (LV) dysfunction and LV chamber remodeling in dogs with chronic heart failure produced by multiple sequential intracoronary microembolizations.
# (§2) Chronic LV dysfunction and failure in dogs was produced by multiple sequential intracoronary embolizations with polystyrene Latex microspheres (77-109 μm in diameter) as previously described by Sabbah et al. (1991) Am. J. Physiol. 260:H1379-H1384. Coronary microembolizations were performed during cardiac catheterization under general anesthesia and sterile conditions. Anesthesia was induced using a combination of intravenous injections of hydromorphone (0.22 mg/kg), diazepam (0.2-0.6 mg/kg) and sodium pentobarbital 50-100 mg to effect. Plane of anesthesia was maintained throughout the study using 1% to 2% isoflurane. Left and right heart catheterization was performed via a femoral arteriotomy and venotomy. After each catheterization, the vessels were repaired using 6-0 silk and the skin closed with 4-0 suture. Microembolizations were discontinued when LV ejection fraction, determined angiographically, was between 30% and 40%. A period of 2 weeks was allowed after the last embolization to ensure that infarctions produced by the last microembolizations have completely healed and heart failure was established. The study protocol was then performed.
# (§3) Healthy, conditioned, purpose-bred mongrel dogs weighing between 19 and 25 kg.
# (§4) A randomized, blinded, placebo controlled study design was used. A total of 28 dogs underwent multiple sequential intracoronary microembolizations as described above to produce chronic heart failure. Two weeks after the last embolization, dogs were randomized into 4 study groups (treatment arms). Dogs were randomized to 3 months oral therapy with ranolazine alone (375 mg, bid, n=7), ranolazine (375 mg bid) in combination with metoprolol tartrate (25 mg bid, n=7), ranolazine (375 mg bid) in combination with enalapril (10 mg bid, n=7), or placebo (ranolazine vehicle bid, n=7). Hemodynamic, angiographic, echocardiographic, Doppler and neurohumoral measurements were made prior to randomization (2 weeks after the last embolization) and after completion of therapy (3 months after initiating therapy). After completing the final hemodynamic and angiographic study, dogs were euthanized and the hearts removed and tissue prepared and saved for future histological and biochemical evaluations. The study primary and secondary end-points were as follows:
# Echocardiographic and Doppler studies were performed in all dogs at all specified study time points using a 77030A ultrasound system (Hewlett-Packard) with a 3.5 MHZ transducer. All echocardiographic measurements were made with the dog placed in the right lateral decubitus position and recorded on a Panasonic 6300 VHS recorder for subsequent off-line analysis. Transverse 2-dimensional echocardiograms were obtained at the level of the LV papillary muscle and were used to calculate LV fractional area of shortening. The latter was calculated as the end-diastolic LV cavity area minus the end-systolic cavity area divided by the end-diastolic cavity area times 100. Two chamber view 2-dimensional echocardiograms were also obtained to ascertain LV major and minor semiaxes to be used for calculation of LV end-diastolic circumferential wall stress. Wall stress was calculated as follows: Stress=Pb/h(1−h/2b)(1−hb/2a2), where P is LV end-diastolic pressure, a is LV major semiaxis, b is LV minor semiaxis, and h is LV wall thickness.
# Mitral inflow velocity was measured by pulsed-wave Doppler echocardiography. The velocity waveforms were used to calculate peak mitral flow velocity in early diastole (PE), peak mitral inflow velocity during LA contraction (PA), the ratio of PE to PA and early mitral inflow deceleration time. […]
# [2] = system: dogs with chronic heart failure produced by multiple sequential intracoronary microembolizations; assay: Histomorphometric evaluations of LV tissue of dogs with chronic heart failure
# Source text: as §1, §2, §3, §4
# On the day of sacrifice, after completion of all hemodynamic and angiographic studies, the dog's chest was opened through a left thoracotomy, the pericardium was opened and the heart rapidly removed and placed in ice-cold, Tris buffer (pH 7.4). Three 2 mm thick transverse slices were obtained from the LV; one slice from the basal third, one from the middle third and one from the apical third and placed in 10% formalin. Transmural blocks were also obtained and rapidly frozen in isopentane cooled to −160° C. by liquid nitrogen and stored at −70° C. until needed. LV tissue samples were also obtained and stored in gluteraldehyde for future scanning and transmission electron microscopic studies.
# From each heart, 3 transverse slices one from the basal third, middle third and apical third of the LV, each […], were obtained. For comparison, tissue samples from 7 normal dogs were obtained and prepared in an identical manner. From each transverse slice, transmural tissue blocks were obtained and embedded in paraffin blocks. From each block, 6 μm thick sections were prepared and stained with Gomori trichrome to identify fibrous tissue. […]
# [3] = system: dogs with chronic heart failure produced by multiple sequential intracoronary microembolizations; assay: Ventriculographic measurements (LV volumes, ejection fraction) in dogs with chronic heart failure
# Source text: as §1, §2, §3, §4
# Left ventriculograms were performed during cardiac catheterization after completion of the hemodynamic measurements. Ventriculograms were performed with the dog placed on its right side and were recorded on 35 mm cine at 30 frames per second during a power injection of 20 ml of contrast material (RENO-M-60, Squibb Diagnostics). Correction for image magnification was made using a radiopaque grid placed at the level of the LV. LV end-systolic and end-diastolic volumes were calculated from angiographic silhouettes using the area length method (4). Premature beats and postextrasystolic beats were excluded from any analysis. LV ejection fraction was calculated as the ratio of the difference of end-diastolic and end-systolic volumes to end-diastolic volume times 100. Stroke volume was calculated as the difference between LV end-diastolic and end-systolic volumes. Cardiac output was calculated as the stroke volume times heart rate and cardiac index as the cardiac output divided by body surface area.
# To ensure that all study measures were similar at baseline, comparisons were made between all 4 study groups before any embolizations and at the time of randomization before initiation of therapy. For these comparisons, a one way analysis of variance (ANOVA) was used with a set at 0.05. […]
# [4] = POST: after 3 months of oral therapy bid
# [5] = PRE: at time of randomization, before therapy
# [6] = change from pre-treatment to post-treatment (3 months)
# [7] = POST: after 3 months of oral therapy bid, mean±SEM
# [8] = PRE: at time of randomization, before therapy, mean±SEM
# [9] = at the end of 3 months of treatment
# [10] = change from pre-treatment to post-treatment (3 months), mean±SEM
structure (smiles),measurement,setting,value
"COc1ccccc1OCC(O)CN1CCN(CC(=O)Nc2c(C)cccc2C)CC1 (racemic) [RAN Alone, (±)-N-(2,6-dimethylphenyl)-4-[2-hydroxy-3-(2-methoxyphenoxy)-propyl]-1-piperazineacetamide]",DT = deceleration time,[1]; [4],87 ± 4 ms
same,EDWS = LV end-diastolic circumferential wall stress,[1]; [4],42 ± 4 gm-cm^2
same,FAS = LV fractional area of shortening,[1]; [4],29 ± 2%
same,MR = severity of mitral regurgitation,[1]; [4],10.1 ± 1.3%
same,PE/PA (mitral inflow velocity ratio),[1]; [4],2.8 ± 0.3
same,DT = deceleration time,[1]; [5],88 ± 3 ms
same,EDWS = LV end-diastolic circumferential wall stress,[1]; [5],56 ± 5 gm-cm^2
same,FAS = LV fractional area of shortening,[1]; [5],28 ± 1%
same,MR = severity of mitral regurgitation,[1]; [5],11.3 ± 1.9%
same,PE/PA (mitral inflow velocity ratio),[1]; [5],2.7 ± 0.3
same,Δ DT (deceleration time),[1]; [6],-1 ± 4 ms
same,Δ EDWS (LV end-diastolic circumferential wall stress),[1]; [6],−14.5 ± 5.2 gm-cm^2
same,Δ FAS (LV fractional area of shortening),[1]; [6],1 ± 1 %
same,Δ MR (severity of mitral regurgitation),[1]; [6],−1.2 ± 1.1%
same,Δ PE/PA,[1]; [6],0.0 ± 0.4
same,VFRF = volume fraction of replacement fibrosis,"[2]; LV tissue after 3 months of therapy, mean±SEM, normal dogs 0 ± 0, placebo 14.6 ± 1.2",10.5 ± 2.1 %
same,VFIF = volume fraction of interstitial fibrosis,"[2]; LV tissue after 3 months of therapy, mean±SEM, normal dogs 3.7 ± 0.1, placebo 13.0 ± 0.7",11.0 ± 0.4 %
same,ODD = oxygen diffusion distance,"[2]; LV tissue after 3 months of therapy, mean±SEM, normal dogs 8.9 ± 0.2, placebo 11.5 ± 0.3",10.9 ± 0.2 μm
same,MCSA = myocyte cross-sectional area,"[2]; LV tissue after 3 months of therapy, mean±SEM, normal dogs 409 ± 10, placebo 772 ± 21",685 ± 23 μm2
same,CD = capillary density,"[2]; LV tissue after 3 months of therapy, mean±SEM, normal dogs 2607 ± 80, placebo 1706 ± 28",1832 ± 43 capillaries/mm2
same,"Histomorphometric measures (myocyte cross-sectional area, replacement and interstitial fibrosis, oxygen diffusion distance, capillary density) compared to placebo",[2]; after 3 months of therapy,significantly improved
same,CI = cardiac index,[3]; [7],2.3 ± 0.2 L/min/m^2
same,CO = cardiac output,[3]; [7],1.91 ± .18 L/min
same,EDV = LV end-diastolic volume,[3]; [7],65 ± 2 mL
same,EF = LV ejection fraction,[3]; [7],37 ± 2 %
same,ESV = LV end-systolic volume,[3]; [7],41 ± 2 mL
same,SV = stroke volume,[3]; [7],24 ± 1 mL
same,CI = cardiac index,[3]; [8],2.0 ± 0.2 L/min/m^2
same,CO = cardiac output,[3]; [8],1.67 ± .11 L/min
same,EDV = LV end-diastolic volume,[3]; [8],63 ± 3 mL
same,EF = LV ejection fraction,[3]; [8],35 ± 1%
same,ESV = LV end-systolic volume,[3]; [8],41 ± 2 mL
same,SV = stroke volume,[3]; [8],22 ± 1 mL
same,"LV ejection fraction, intra-group comparison pre- vs post-treatment",[3]; [9],increased significantly
same,"LV end-diastolic volume, intra-group comparison pre- vs post-treatment",[3]; [9],remained unchanged
same,"LV end-systolic volume, intra-group comparison pre- vs post-treatment",[3]; [9],remained unchanged
same,Δ CI (cardiac index),[3]; [10],0.3 ± 0.1 L/min/m^2
same,Δ CO (cardiac output),[3]; [10],0.24 ± .10 L/min
same,Δ EDV (LV end-diastolic volume),[3]; [10],2 ± 1 mL
same,Δ EF (LV ejection fraction),[3]; [10],2 ± 1 %
same,Δ ESV (LV end-systolic volume),[3]; [10],0 ± 1 mL
same,Δ SV (stroke volume),[3]; [10],2 ± 1 mL
same,Ability to reduce LV end-diastolic volume (FIG. 1),[3]; data of Example 1,"neither ranolazine, enalapril, nor metoprolol were independently able to reduce LV end-diastolic volume"
same,Ability to reduce LV end-systolic volume (FIG. 2),[3]; data of Example 1,"neither ranolazine, enalapril, nor metoprolol appear to independently reduce LV end-systolic volume"
